Data published in patent US20230339851A1, “CXCR6 SULFONAMIDE COMPOUNDS” (CHEMOCENTRYX, INC., priority 2022, published 2023).

The compounds below were run against T1, human CXCR6 (Homo sapiens, UniProt O00574) (assay: Radioligand Binding Assay (125I-CXCL16 displacement)). Conditions: L1.2 cells stably transfected with human CXCR6 cDNA, 0.1 nM 125I-CXCL16, 4° C., three-hour incubation; read-out: Potency (IC50).
T1 construct: expressed in transfected cells
Protocol: L1.2 cells stably transfected with human CXCR6 cDNA ([…]) were incubated at 4° C. in HBSS containing 0.1 % BSA and 0.1 nM of ^125I-CXCL16 plus various concentrations of Compound. Following a three-hour incubation period, cells were aspirated onto polyethyleneimine-treated GF/B glass fiber filters (PerkinElmer, Waltham, MA) with a cell harvester (Tomtec, Hamden, CT) and washed twice with washing buffer (25 mM Hepes, 500 mM NaCl, 1 mM CaCI2, 5 mM MgCI2, pH 7.1). Fifty µl of MicroScint-20 (PerkinElmer, Waltham, MA) was added to each well of the filters, and radioactive emissions (cpm) were measured on a Packard TopCount Scintillation counter (PerkinElmer, Waltham, MA). IC50 values were calculated with GraphPad Prism using 3 parameter nonlinear regression. […]

T1 sequence (O00574 whole entry): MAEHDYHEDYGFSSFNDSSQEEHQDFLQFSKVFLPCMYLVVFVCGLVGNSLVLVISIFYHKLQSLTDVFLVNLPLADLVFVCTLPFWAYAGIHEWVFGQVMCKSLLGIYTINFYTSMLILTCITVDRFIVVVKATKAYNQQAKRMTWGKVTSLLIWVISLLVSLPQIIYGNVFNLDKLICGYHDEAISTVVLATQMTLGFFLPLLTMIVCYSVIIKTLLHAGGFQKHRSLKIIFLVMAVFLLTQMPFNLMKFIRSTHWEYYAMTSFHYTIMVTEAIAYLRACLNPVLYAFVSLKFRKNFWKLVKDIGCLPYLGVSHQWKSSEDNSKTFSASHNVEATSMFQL

Compound	IC50 [nM]
COc1cc(NC(=O)c2ccnn2C)ccc1S(=O)(=O)Nc1cccc(Cl)c1 [Example 1.202]	2000 to 20000
COc1cc(NC(=O)c2ccnn2C)ccc1S(=O)(=O)Nc1cccc(OC(C)C)c1 [Example 1.145]	750 to 2000
COc1cc(NC(=O)C2CC(=O)N(C)C2)ccc1S(=O)(=O)Nc1cccc(OC(F)(F)F)c1 (stereo not shown) [Example 1.442]	2000 to 20000
COc1cc(NC(=O)C2CCCCC2C)ccc1S(=O)(=O)Nc1cccc(C(F)(F)F)c1 (stereo not shown) [Example 1.417]	750 to 2000
CCc1cc(NC(=O)c2ccns2)ccc1S(=O)(=O)Nc1cccc(C(F)(F)F)c1 [Example 1.225]	200 to 750
CCOc1cc(NC(=O)[C@@H](O)C(C)C)ccc1S(=O)(=O)Nc1ccc2c(c1)OC(F)(F)O2 [Example 1.340]	750 to 2000
CCOc1cc(NC(=O)C(O)c2ccc(O)cc2)ccc1S(=O)(=O)Nc1cccc(OC(F)(F)F)c1 (stereo not shown) [Example 1.527]	200 to 750
Cc1cc(NC(=O)C(CO)c2ccccc2)ccc1S(=O)(=O)Nc1cccc(OC(F)(F)F)c1 (stereo not shown) [Example 1.569]	200 to 750
Cc1cc(NC(=O)[C@@H](CO)c2ccccc2)ccc1S(=O)(=O)Nc1cccc(C(F)(F)F)c1 [Example 1.459]	750 to 2000
COc1cc(NC(=O)CC2CC2)ccc1S(=O)(=O)Nc1cccc(C(F)(F)F)c1 [Example 1.414]	2000 to 20000
Cc1cc(NC(=O)C2CCNCC2)ccc1S(=O)(=O)Nc1cccc(C(F)(F)F)c1 [Example 1.381]	2000 to 20000
Cc1cc(NC(=O)[C@H]2CCOC[C@H]2C)ccc1S(=O)(=O)Nc1cccc(C(F)(F)F)c1 (racemic) [Example 1.483]	200 to 750
CCOc1cc(NC(=O)C2COC[C@H]2O)ccc1S(=O)(=O)Nc1cccc(OC(F)(F)F)c1 (mixture of isomers) [Example 1.518]	200 to 750
CCOc1cc(NC(=O)C2CCC[C@@H]2O)ccc1S(=O)(=O)Nc1cccc(OC(F)(F)F)c1 (stereo partly shown) [Example 1.185]	200 to 750
CCOc1cc(NC(=O)CC(C)(O)CC)ccc1S(=O)(=O)Nc1cccc(OC(F)(F)F)c1 (stereo not shown) [Example 1.052]	200 to 750
CCOc1cc(NC(=O)CC(O)C2CCCOC2)ccc1S(=O)(=O)Nc1cccc(OC(F)(F)F)c1 (stereo not shown) [Example 1.230]	750 to 2000
CCOc1cc(NC(=O)C2CCCN(C(=O)OC(C)(C)C)C2)ccc1S(=O)(=O)Nc1cccc(OC(F)(F)F)c1 (stereo not shown) [Example 1.458]	2000 to 20000
COc1cc(NC(=O)CC2COCCN2)ccc1S(=O)(=O)Nc1cccc(C(F)(F)F)c1 (stereo not shown) [Example 1.240]	2000 to 20000
CC(C)c1cc(NC(=O)c2ccnn2C)ccc1S(=O)(=O)Nc1cccc(C(F)(F)F)c1 [Example 1.384]	200 to 750
COc1cc(NC(=O)c2ccnn2C)ccc1S(=O)(=O)Nc1ccc(Cl)c(Cl)c1 [Example 1.247]	750 to 2000
CCOc1cc(NC(=O)[C@@H](O)C(C)C)ccc1S(=O)(=O)Nc1ccc(F)c(C)c1 [Example 1.440]	200 to 750
CCOc1cc(NC(=O)C(C)C(O)C2CCOCC2)ccc1S(=O)(=O)Nc1cccc(OC(F)(F)F)c1 (stereo not shown) [Example 1.072]	200 to 750
Cc1cc(NC(=O)[C@@H]2CCCN2C(=O)OC(C)(C)C)ccc1S(=O)(=O)Nc1cccc(C(F)(F)F)c1 [Example 1.012]	2000 to 20000
CCOc1cc(NC(=O)C2CC3C=CC2O3)ccc1S(=O)(=O)Nc1cccc(OC(F)(F)F)c1 (stereo not shown) [Example 1.046]	200 to 750
COc1cc(NC(=O)c2ccnn2C)ccc1S(=O)(=O)Nc1ccc2c(c1)OC(F)(F)O2 [Example 1.582]	750 to 2000
O=C(Nc1ccc(S(=O)(=O)Nc2cccc(C(F)(F)F)c2)c(F)c1)c1ccccc1 [Example 1.549]	2000 to 20000
COc1cc(NC(=O)[C@@H](CO)c2ccccc2)ccc1S(=O)(=O)Nc1cccc(OC(F)(F)F)c1 [Example 1.235]	200 to 750
CCOc1cc(NC(=O)[C@@H](CO)C(C)C)ccc1S(=O)(=O)Nc1cccc(Cl)c1OC [Example 1.362]	750 to 2000
CC(C)[C@H](O)C(=O)Nc1ccc(S(=O)(=O)Nc2cccc(OC(F)(F)F)c2)c(OC(F)(F)F)c1 [Example 1.134]	200 to 750

The next lines start with the values.

IC50 [nM]	Compound
≤ 200	CCOc1cc(NC(=O)[C@@H](O)C(C)C)ccc1S(=O)(=O)Nc1cccc(C2CC2)c1 [Example 1.308]
200 to 750	CCOc1cc(NC(=O)c2cccc3cn[nH]c23)ccc1S(=O)(=O)Nc1cccc(OC(F)(F)F)c1 [Example 1.357]
≤ 200	CCOc1cc(NC(=O)C(CO)C2CCCCC2)ccc1S(=O)(=O)Nc1cccc(OC(F)(F)F)c1 (stereo not shown) [Example 1.113]
≤ 200	COCc1cc(NC(=O)[C@@H](O)C(C)C)ccc1S(=O)(=O)Nc1cccc(OC(F)(F)F)c1 [Example 1.188]
≤ 200	Cc1cc(NC(=O)[C@@H](O)C(C)C)ccc1S(=O)(=O)Nc1cccc(OC(F)(F)F)c1 [Example 1.322]
≤ 200	CCOc1cc(NC(=O)[C@@H](CO)C(C)C)ccc1S(=O)(=O)Nc1ccc(Cl)c(OC(F)(F)F)c1 [Example 1.004]
≤ 200	CCOc1cc(NC(=O)C(O)C2C=CCC2)ccc1S(=O)(=O)Nc1cccc(OC(F)(F)F)c1 (stereo not shown) [Example 1.031]
≤ 200	CCOc1cc(NC(=O)[C@@H](CO)c2ccccc2)ccc1S(=O)(=O)Nc1cccc(C(C)(C)C)c1 [Example 1.170]
≤ 200	CCOc1cc(NC(=O)[C@@H](CO)C(C)C)ccc1S(=O)(=O)Nc1cccc(C(C)(C)C)c1 [Example 1.017]
≤ 200	CCOc1cc(NC(=O)[C@@H](CO)c2ccccc2)ccc1S(=O)(=O)Nc1ccc(C)c(OC(F)(F)F)c1 [Example 1.003]
≤ 200	CCOc1cc(NC(=O)[C@@H](O)c2ccccc2)ccc1S(=O)(=O)Nc1ccc(Cl)c(OC(F)(F)F)c1 [Example 1.262]
≤ 200	CCOc1cc(NC(=O)C(CO)c2ccc(F)cc2)ccc1S(=O)(=O)Nc1cccc(OC(F)(F)F)c1 (stereo not shown) [Example 1.204]
≤ 200	CCOc1cc(NC(=O)[C@@H](CO)C(C)C)ccc1S(=O)(=O)Nc1ccc(C)c(OC(F)(F)F)c1 [Example 1.342]
≤ 200	CCOc1cc(NC(=O)C(CO)CC2CC2)ccc1S(=O)(=O)Nc1cccc(OC(F)(F)F)c1 (stereo not shown) [Example 1.014]
≤ 200	CCOc1cc(NC(=O)[C@@H](O)C(C)C)ccc1S(=O)(=O)Nc1ccc(C)c(CC)c1 [Example 1.402]
≤ 200	C=Cc1cc(NS(=O)(=O)c2ccc(NC(=O)[C@@H](O)C(C)C)cc2OCC)ccc1C [Example 1.286]
≤ 200	CCOc1cc(NC(=O)[C@@H](CO)c2ccccc2)ccc1S(=O)(=O)Nc1ccc(Cl)c(OC(F)(F)F)c1 [Example 1.389]
≤ 200	CCCOc1cc(NC(=O)[C@@H](CO)C(C)C)ccc1S(=O)(=O)Nc1cccc(OC(F)(F)F)c1 [Example 1.551]
≤ 200	CCOc1cc(NC(=O)c2ccc(C)nc2)ccc1S(=O)(=O)Nc1cccc(OC(F)(F)F)c1 [Example 1.149]
≤ 200	CCCc1cc(NC(=O)[C@@H](CO)c2ccccc2)ccc1S(=O)(=O)Nc1cccc(OC(F)(F)F)c1 [Example 1.509]
≤ 200	O=C(Nc1ccc(S(=O)(=O)Nc2cccc(OC(F)(F)F)c2)c(Cl)c1)[C@@H](CO)c1ccccc1 [Example 1.196]
≤ 200	Cc1cc(NC(=O)c2ccnn2C)ccc1S(=O)(=O)Nc1cccc(C(F)(F)F)c1 [Example 1.036]
≤ 200	CCOc1cc(NC(=O)c2cccnc2C)ccc1S(=O)(=O)Nc1cccc(OC(F)(F)F)c1 [Example 1.200]
